Consider 2 compounds from patent US20030194719A1, “Tpst-assay for diagnosis of autism and related disorders” (priority 2000, published 2003).

The subject of experiment [1] is Tyrosyl protein sulphotransferase (TPST). In words: TPST activity assay in platelets from normal healthy blood donors (35S transfer from PAPS35 to EAY substrate). Type of experiment: biochemical, human. The following applies: normal human platelets. As to the method:
The activity of sulphotransferases can be measured by monitoring the transfer of ^35S from the sulphate donor, PAPS^35, to the product, in this case the synthetic tyrosine substrate EAY. This assay uses platelets from control subjects (n=5) and those patients suffering from a particular disorder, selected from autism (n=14), irritable bowel syndrome (n=3) schizophrenia (gluten-sensitive)(n=4), food allergy (gluten, milk) (n=3) and depression (n=2).
Reaction mixtures were incubated for 50 minutes at 37° C. and reactions were stopped by barium acetate. Unreacted sulphate, proteins and nucleotides were precipitated by zinc sulphate and barium hydroxide. Within the reaction there is a positive and negative control. The positive control is termed 100%, and represents the total amount of radioactivity present in the hot PAPS^35 sample. The negative control is the “no-enzyme” reaction, this represents the amount of sulphate transferred to the product when no enzyme is present, i.e. the chemical reaction. The blank for the reaction is made up without PAPS^35 and without enzyme.
10 ml of whole blood was taken from patients and the blood cells removed. The remaining plasma was centrifuged at 8000 g for 5 mins to sediment the platelets. This platelet pellet was resuspended in 5 ml 10 mM phosphate buffered saline (PBS) containing 10 mM EDTA, recentrifuged at 2000 g at 4° C. for 30 min. […] The platelets were sonicated for 12×10 second bursts at 4° C. The platelet sonicates were stored in 1 ml portions at −70° C. prior to use.
Substrate: 10 μl EAY (300 μM; poly (Glu, Ala, Tyr) 6:3:1) was used in each test assay, to give a final concentration in the reaction of 20 μM. This solution was made up in MES reaction buffer.
Reaction mixtures were made up as in the table above. To begin the assay, platelet homogenate (20 μl) and PAPS^35 (20 μl) were added at 30-second intervals to a final volume of 150 μl. The reaction mixture was then incubated at 37° C. for 40 min. The reaction is stopped by the addition of 200 μl-barium acetate (0.1 M) and the tubes were vortexed and placed on ice for […].
Unreacted sulphate was then precipitated by the addition of 0.1 M zinc sulphate (200 μl) and 0.1 M barium hydroxide (200 μl). The tubes were vortexed and centrifuged at 6500 rpm for 3 min.
Repeat step 3. Supernatant (500 μl) was then added to scintillation fluid (3.5 ml) and S^35 was counted in a Phillips scintillation counter.
Various compounds were investigated, including fatty acids, flavonoids and amino acids. […] Compounds were tested at the concentrations shown and were dissolved in buffer where possible or ethanol if not.
In the Example shown in Table 6 and FIG. 6 compounds were all dissolved in DMSO and tested at 25 μM.

Experiment [2] deals with TPST. Particulars: stomach and liver of ethanol-fed male Sprague-Dawley rats; cited from earlier work.
Experiment [3] relates to TPST. Particulars: human alcoholics; cited from earlier work.
For experiment [4], the system named is TPST. The following applies: PC12 cells; cited from earlier work.

As for `CCO` [Ethanol], the “Effect on TPST activity (in words)” value in experiment [1] (Example 2, concentrations as in Table 2) is “stimulation of activity”. Besides, the “% Control TPST Activity” value in experiment [1] (Table 2, 0.4%) was determined as 177%. Moreover, the “Increase of TPST level” value with TPST [2] is “over three-fold”. Further, the “TPST enzyme activity versus normal individuals” value in the experiment with TPST [3] is on record as “two- to three-fold higher”.
On to `[Mn+2]` [Manganese], for which the “Effect on TPST activity” value with TPST [4] was “suppresses TPST activity”.
